We go through five compounds from patent publication US20060094002A1 (priority 2002, published 2006).

SMILES strings stand for the structures.

This test relates to Aspergillus (A. nidulans, A. niger, A. awamori). The test is described as follows: Effect of known antifungal drugs on [Ca2+]c in different Aspergillus species. It is filed as cell-based. The conditions noted are these: FIGS. 22a, b. The text has this:
Procedure: • The fungus can be either transformed with the recombinant aequorin gene or can be injected with the active aequorin. • Then this fungus can be subjected to a range of the antifungal drugs, profiles of which have already been created. • Obtained profiles can be compared with the library of the fingerprints and this way the fungal species can be identified.

Regarding `C[C@@H]1[C@H](O)[C@@H](C)/C=C/C=C/C=C/C=C/C=C/C=C/C=C/[C@H](O[C@@H]2O[C@H](C)[C@@H](O)[C@H](N)[C@@H]2O)C[C@@H]2O[C@](O)(C[C@@H](O)C[C@@H](O)[C@H](O)CC[C@@H](O)C[C@@H](O)CC(=O)O[C@H]1C)C[C@H](O)[C@H]2C(=O)O` [amphotericin B], the “[Ca^2+]c response in 3 different species of Aspergillus” value was “caused a different [Ca^2+]c response”. For the compound `Clc1ccccc1C(c1ccccc1)(c1ccccc1)n1ccnc1` [clotrimazole], the “[Ca^2+]c response in 3 different species of Aspergillus” value was “caused a different [Ca^2+]c response”. With `CCCCC[C@@H](O)[C@H]1C(=O)O[C@H](C)[C@@H](O)/C=C/C=C/C=C/C=C/C=C(\C)[C@@H](O)C[C@H](O)C[C@H](O)C[C@H](O)C[C@H](O)C[C@H](O)C[C@@H]1O` [filipin] the entry was “caused a different [Ca^2+]c response”; with `CC(=O)N1CCN(c2ccc(OCC3COC(Cn4ccnc4)(c4ccc(Cl)cc4Cl)O3)cc2)CC1` (centres unmarked) [ketoconazole], “caused a different [Ca^2+]c response”; with `C[C@@H]1[C@H](O)[C@@H](C)/C=C/C=C/CC/C=C/C=C/C=C/C=C/C(O[C@H]2O[C@H](C)[C@@H](O)[C@H](N)[C@@H]2O)CC2O[C@](O)(CC(O)C(O)CCC(O)CC(O)CC(O)CC(=O)O[C@H]1C)CC(O)C2C(=O)O` (some centres unmarked) [nystatin], “caused a different [Ca^2+]c response”.
